The data set relates to rodent carcinogenicity bioassays, tumor incidence. The experiment in a line: CCRIS carcinogenicity studies. In short, it runs like this: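 Archive of carcinogenicity, mutagenicity, tumor promotion and tumor inhibition results drawn from journals, NCI reports and other sources, expert-reviewed; covers 1985-2011 and is no longer updated.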

Calls of active or inactive are those of the source. How the calls were made is not given here.

In the case of `[CH3][Hg][O]C(C)=O`, the carcinogen call is, setting by setting: (Species: MOUSE, Strain/Sex: SWISS/FEMALE, Route: ORAL, Dose: 0, 5 PPM (HG) IN DRINKING WATER FOR 70 D THEN 1 PPM (HG) FOR DURATION OF STUDY (STUDY DURATION: LIFE SPAN)) “inactive; negative”; (Species: MOUSE, Strain/Sex: SWISS/MALE, Route: ORAL, Dose: 0, 5 PPM (HG) IN DRINKING WATER FOR 70 D THEN 1 PPM (HG) FOR DURATION OF STUDY (STUDY DURATION: LIFE SPAN)) “inactive; negative”.
For the compound `c1ccc(N=Nc2ccccc2)cc1`, the carcinogen call is “inactive; negative” (Species: MOUSE, Strain/Sex: B6C3F1/FEMALE, Route: ORAL, Dose: 0, 208, 545 PPM IN DIET, TWA, Dose: 0, 208, 545 PPM IN DIET, TWA); “inactive; negative” (Species: MOUSE, Strain/Sex: B6C3F1/MALE, Route: ORAL, Dose: 0, 200, 400 PPM IN DIET, Dose: 0, 200, 400 PPM IN DIET); “active; positive” (Species: RAT, Strain/Sex: F344/FEMALE, Route: ORAL, Dose: 0, 200, 400 PPM IN DIET FOR 106 WK (STUDY DURATION: 106 WK), Dose: 0, 200, 400 PPM IN DIET FOR 106 WK (STUDY DURATION: 106 WK), Tumor Site: Type of Lesion: SPLEEN OR PERITONEUM: SARCOMA); “active; positive” (Species: RAT, Strain/Sex: F344/FEMALE, Route: ORAL, Dose: 0, 200, 400 PPM IN DIET, Dose: 0, 200, 400 PPM IN DIET, Tumor Site: Type of Lesion: SPLEEN: FIBROSARCOMA, OSTEOSARCOMA, PERITONEAL CAVITY: SARCOMA); “active; positive” (Species: RAT, Strain/Sex: F344/MALE, Route: ORAL, Dose: 0, 200, 400 PPM IN DIET FOR 106 WK (STUDY DURATION: 106 WK), Dose: 0, 200, 400 PPM IN DIET FOR 106 WK (STUDY DURATION: 106 WK), Tumor Site: Type of Lesion: SPLEEN OR PERITONEUM: SARCOMA); “active; positive” (Species: RAT, Strain/Sex: F344/MALE, Route: ORAL, Dose: 0, 200, 400 PPM IN DIET, Dose: 0, 200, 400 PPM IN DIET, Tumor Site: Type of Lesion: SPLEEN: FIBROSARCOMA, PERITONEAL CAVITY: SARCOMA).
With `O=S(=O)([O-])[O-].[Cd+2]`, the carcinogen call was “inactive; negative” (Species: HAMSTER, Strain/Sex: SYRIAN/FEMALE, Route: INHALATION, Dose: 0, 30 UG/M3 19 HR/D 5 D/WK FOR 65 WK FOR A TOTAL CADMIUM DOSE OF 0, 180 MG/M3 (STUDY DURATION: 77 WK), Dose: 0, 30 UG/M3 19 HR/D 5 D/WK FOR 65 WK FOR A TOTAL CADMIUM DOSE OF 0, 180 MG/M3 (STUDY DURATION: 77 WK)); “inactive; negative” (Species: HAMSTER, Strain/Sex: SYRIAN/MALE, Route: INHALATION, Dose: 0, 30 UG/M3 19 HR/D 5 D/WK FOR 65 WK FOR A TOTAL CADMIUM DOSE OF 0, 180 MG/M3 (STUDY DURATION: 113 WK), Dose: 0, 30 UG/M3 19 HR/D 5 D/WK FOR 65 WK FOR A TOTAL CADMIUM DOSE OF 0, 180 MG/M3 (STUDY DURATION: 113 WK)); “active; positive” (Species: RAT, Strain/Sex: ALBINO/MALE, Route: SUBCUTANEOUS, Dose: 0.5 MG IN WATER 1/WK FOR 10 WK, Tumor Site: Type of Lesion: INJECTION SITE: SARCOMA, TESTES: INTERSTITIAL CELL TUMOR); “active; positive” (Species: RAT, Strain/Sex: CB/MALE, Route: SUBCUTANEOUS, Dose: 0.5 MG, 1/WK FOR 10 WK, Tumor Site: Type of Lesion: INJECTION SITE: SARCOMA, TESTES: INTERSTITIAL CELL TUMOR); “active; positive” (Species: RAT, Strain/Sex: WISTAR/FEMALE, Route: INHALATION, Dose: 0, 90 UG/M3 22 HR/D 7 D WK FOR 18 MO (STUDY DURATION: 18 MO), Tumor Site: Type of Lesion: LUNG: ALVEOLAR/BRONCHIOLAR ADENOMA, ALVEOLAR/BRONCHIOLAR ADENOCARCINOMA, SQUAMOUS CELL CARCINOMA); “active; positive” (Species: RAT, Strain/Sex: WISTAR/FEMALE, Route: INHALATION, Dose: 0, 90 UG/M3 22 HR/D 7 D/WK FOR 18 MO (STUDY DURATION: 29 MO), Tumor Site: Type of Lesion: LUNG: ALVEOLAR/BRONCHIOLAR ADENOMA, ADENOCARCINOMA, SQUAMOUS CELL CARCINOMA). Besides, the carcinogen call by setting is: (Species: RAT, Strain/Sex: WISTAR/FEMALE, Route: INHALATION, Dose: 0, 90 UG/M3 22 HR/D 7 D/WK FOR 18 MO (STUDY DURATION: 29 MO), Tumor Site: Type of Lesion: LUNG: TUMOR) “active; positive”; (Species: RAT, Strain/Sex: WISTAR/FEMALE, Route: INHALATION, Dose: 0, 90 UG/M3 AEROSOL 22 HR/D 7 D/WK FOR 18 MO (STUDY DURATION: 29 MO), Tumor Site: Type of Lesion: LUNG: ALVEOLAR/BRONCHIOLAR ADENOMA, ADENOCARCINOMA, SQUAMOUS CELL CARCINOMA) “active; positive”; (Species: RAT, Strain/Sex: WISTAR/MALE, Route: INHALATION, Dose: 0, 90 UG/M3 22 HR/D 7 D/WK FOR 14 MO (STUDY DURATION: 31 MO), Tumor Site: Type of Lesion: LUNG: ALVEOLAR/BRONCHIOLAR ADENOMA, ADENOCARCINOMA) “active; positive”; (Species: RAT, Strain/Sex: WISTAR/MALE, Route: INHALATION, Dose: 0, 90 UG/M3 22 HR/D 7 D/WK FOR 14 MO (STUDY DURATION: 31 MO), Tumor Site: Type of Lesion: LUNG: TUMOR) “active; positive”; (Species: RAT, Strain/Sex: WISTAR/MALE, Route: INHALATION, Dose: 0, 90 UG/M3 22 HR/D 7 D/WK FOR 135 MO (STUDY DURATION: 13.5 MO), Tumor Site: Type of Lesion: LUNG: ALVEOLAR/BRONCHIOLAR ADENOMA, ALVEOLAR/BRONCHIOLAR ADENOCARCINOMA, SQUAMOUS CELL CARCINOMA) “active; positive”; (Species: RAT, Strain/Sex: WISTAR/MALE, Route: INHALATION, Dose: 0, 90 UG/M3 AEROSOL 22 HR/D 7 D/WK FOR 14 MO (STUDY DURATION: 31 MO), Tumor Site: Type of Lesion: LUNG: ALVEOLAR/BRONCHIOLAR ADENOMA, ADENOCARCINOMA) “active; positive”.
Consider `N[C@@H](Cc1ccc(N(CCCl)CCCl)cc1)C(=O)O`, for which the carcinogen call (Species: HUMAN, Route: ORAL, Tumor Site: Type of Lesion: HEMATOPOIETIC SYSTEM (LEUKEMIA), LYMPHATIC SYSTEM: LYMPHOMA) is “active; positive”; the carcinogen call (Species: MOUSE, Strain/Sex: STRAIN-A/MALE,FEMALE, Route: INTRAPERITONEAL, Dose: 0.27, 1.07, 4.27, 17.1 MG/KG IN 12 DOSES OVER 4 WK, Dose: 0.27, 1.07, 4.27, 17.1 MG/KG IN 12 DOSES OVER 4 WK, Tumor Site: Type of Lesion: LUNG: ADENOMA) is “active; positive”; the carcinogen call (Species: MOUSE, Strain/Sex: SWISS/FEMALE, Route: INTRAPERITONEAL, Dose: 0.75, 1.5 MG/KG 3/WK FOR 6 MO, Tumor Site: Type of Lesion: LUNG: ADENOMA) was “active; positive”; the carcinogen call (Species: MOUSE, Strain/Sex: SWISS/MALE, Route: INTRAPERITONEAL, Dose: 0.75, 1.5 MG/KG 3/WK FOR 6 MO, Tumor Site: Type of Lesion: LUNG: ADENOMA, LYMPHATIC SYSTEM: LYMPHOSARCOMA) was “active; positive”; the carcinogen call (Species: RAT, Strain/Sex: STRAIN-CD/MALE,FEMALE, Route: INTRAPERITONEAL, Dose: 0.9, 1.8 MG/KG 3/WK FOR 6 MO, Tumor Site: Type of Lesion: PERITONEAL CAVITY: SARCOMA) is “active; positive”.
For the compound `CC(=O)O[C@]1(C(C)=O)CC[C@H]2[C@@H]3C=C(Cl)C4=CC(=O)[C@@H]5C[C@@H]5[C@]4(C)[C@H]3CC[C@@]21C`, the carcinogen call (Species: MOUSE, Strain/Sex: C57BL/FEMALE, Route: ORAL, Dose: 0, 800 PPM IN DIET FOR 97 WK (STUDY DURATION: 97 WK), Tumor Site: Type of Lesion: LIVER: HEPATOCELLULAR ADENOMA, HEPATOCELLULAR CARCINOMA) was “active; positive”; the carcinogen call (Species: MOUSE, Strain/Sex: C57BL/MALE, Route: ORAL, Dose: 0, 800 PPM IN DIET FOR 104 WK (STUDY DURATION: 104 WK), Tumor Site: Type of Lesion: LIVER: HEPATOCELLULAR ADENOMA, HEPATOCELLULAR CARCINOMA) is “active; positive”; the carcinogen call (Species: RAT, Strain/Sex: WISTAR/MALE, Route: GAVAGE, Dose: 0, 50 MG/KG IN TAP WATER 1/D FOR 21 D (STUDY DURATION: 79 WK)) was “inactive; negative”.
In the case of `CCNN`, the carcinogen call runs as follows: (Species: MOUSE, Strain/Sex: SWISS/FEMALE, Route: ORAL, Dose: 0, 0.0125% IN DRINKING WATER FOR LIFE FOR AN AVERAGE DAILY DOSE OF 0, 0.92 MG (STUDY DURATION: 130 WK), Dose: 0, 0.0125% IN DRINKING WATER FOR LIFE FOR AN AVERAGE DAILY DOSE OF 0, 0.92 MG (STUDY DURATION: 130 WK), Tumor Site: Type of Lesion: LUNG: ADENOMA OR ADENOCARCINOMA, BLOOD VESSEL: ANGIOSARCOMA OR ANGIOMA) “active; positive”; (Species: MOUSE, Strain/Sex: SWISS/MALE, Route: ORAL, Dose: 0, 0.0125% IN DRINKING WATER FOR LIFE FOR AN AVERAGE DAILY DOSE OF 0, 1.52 MG (STUDY DURATION: 130 WK), Dose: 0, 0.0125% IN DRINKING WATER FOR LIFE FOR AN AVERAGE DAILY DOSE OF 0, 1.52 MG (STUDY DURATION: 130 WK), Tumor Site: Type of Lesion: LUNG: ADENOMA OR ADENOCARCINOMA, BLOOD VESSEL: ANGIOSARCOMA OR ANGIOMA) “active; positive”.

The record behind these values is PubChem BioAssay AID1259411 (Chemical Carcinogenesis Research Information System (CCRIS), 2018).
